Read-outs that look alike come from different tables or passages of the source.

In test [1] the test system is m1, m2 and m3 subtypes of M receptor. The experiment in a line: Competitive [3H]-QNB binding on membranes of CHO cells transfected with m1, m2, m3; selectivity on subtypes of M receptor. The following applies: ratio of Ki, n = 6.
Test [2] deals with tracheal smooth muscle from guinea pigs (contraction induced by 3 × 10^−6 mol/L of CCh). The experiment in a line: Antagonism in vitro of contraction of isolated tracheal smooth muscle from guinea pigs induced by carbachol (CCh). The following applies: cumulative dosing. It counts as cell-based, guinea pig. From the text:
Preparation of the Isolated Tracheal Smooth Muscle Specimen from a Guinea Pig:
After a guinea pig was narcotized with urethane, the trachea between the throat and carina of the guinea pig was taken out rapidly, and placed in the Krebs-Henseleit (K-H) solution (composition (g/L): NaCl 6.92, KCl 0.35, CaCl2 0.28, KH2PO4 0.16, MgSO4.7H2O 0.4568, NaHCO3 2.1, Glucose 2.0) with a mixture gas of 5% CO2 and 95% O2 purged. After loose connective tissues and fats around the trachea were separated, the trachea was cut into trachea pieces having a width of about 3 mm and a length of 20 mm by a surgical scissor, with both ends of the trachea piece ligated with 4˜0 silk suture, and then placed into a thermostatic bath containing 5 ml of K—H solution (pH 7.4) at 37° C., with the mixture gas of 5% CO2 and 95% O2 continuously purged. A muscle tension transducer was connected to the upper end so as to apply 1.0 g of resting tension to the specimen, the change of the tension was recorded, the culture solution was replaced every 20 min, and the test was started after being balanced for 60 min.
Administration method: After the trachea piece was stabilized, 3×10^−6 mol/L of CCh was added into a bath, and after the contractile tension of the trachea piece reached a peak level, the example compounds, ipratropium bromide and tiotropium bromide were added into a Magnus bath by a cumulative dosing regimen with a dosage of 10^−9˜10^−5 mol, respectively, and the diastolic condition of the trachea piece was observed: if no response occurred (below the threshold concentration), a next dosage was continued to be added in sequence; if response occurred, after it reached a diastolic plateau, a next dosage was further added. The above operation was repeated until the contractile curve reached the minimum value. Finally, 10^−6 mol/L of isoprenaline was added so that the maximum relaxation would be reached and the curve was recorded.
Statistical approach: The result was expressed as mean ±standard deviation, and counted by Sigma Stat statistical package. The data was analyzed by using variance analysis, the comparison among means of a plurality of specimen was performed by using Student-Newman-Keuls(SNK) test; statistical significant level α=0.05 (bilateral).
Compounds shown in Table 5 were further prepared according to the present invention, and their IC50 […] of resistance to the contraction of tracheal smooth muscle from guinea pigs induced by a concentration of 3×10^−6 mol/L of CCh was determined.

For test [3] the test system is unchanged. The description is as above. It counts as cell-based, guinea pig.
The test system of test [4] is bronchus in guinea pigs (contractile response induced by Mch). Briefly: Antagonism of contractile response of bronchus in guinea pigs induced by methacholine (Mch); airway resistance and pulmonary dynamic compliance. It counts as in vivo, guinea pig. The note with it: Mch 10 μg/kg iv after 30 min; for Cdyn(ml/cm H2O) / Raw (cm H2O/ml/s): Mean ± S.E.M. From the text:
Determination of tidal volume, airway flow rate, and transpulmonary pressure: 1.5 g/kg of urethane was intraperitoneally injected to narcotize the guinea pig. The guinea pig was fixed supinely and treated with tracheal intubation, and the external jugular vein was separated and an indwelling needle was inserted; the guinea pig was enclosed into a body plethysmograph, a blunt needle for intubation into thoracic cavity was inserted between ribs 4˜5 of the prothorax of the guinea pig, and the intrathoracic pressure could be measured (with a negative value of a water column of a water manometer and a fluctuation with the breath of the guinea pig as marks). After stabilization, the values of the tidal volume, airway flow rate and transpulmonary pressure of the guinea pig prior to administration of Mch were recorded by a MedLab biological signal collection and processing system as base values. 10 μg/kg body weight of Mch was intravenously injected. The changes of the airway flow rate, tidal volume and transpulmonary pressure of the guinea pig within 5 minutes were observed. Calculation of Raw and Cdyn: the changes of the increased percentage of Raw value and the decreased percentage of Cdyn after […] of Mch were calculated.
Calculation formulas of Raw and Cdyn were respectively: […]
Dose-effect relationship: For each of the example compounds, 27 guinea pigs were randomly divided into […]: a solvent control group with […], a group with 1 μg/kg of the example compounds 4, 10, 14, and 26, a group with 3 μg/kg of the example compounds 4, 10, 14, and 26 and a group with 10 μg/kg of the example compounds 4, 10, 14, and 26; after 30 min from the dropping of the above concentration of drugs in the airway, 10 μg/kg body weight of Mch was intravenously injected for excitation, and airway resistance (Raw) and pulmonary dynamic compliance (Cdyn) within 5 min were determined. […]

Where [5] appears, read: read-out: IC50 (μM), antagonism in vitro against the contraction of the tracheal smooth muscle induced by CCh, 3 × 10^−6 mol/L of CCh.
Where [6] appears, read: Cavia porcellus, read-out: IC50 (μM), antagonism in vitro against the contraction of the tracheal smooth muscle induced by CCh, 3 × 10^−6 mol/L of CCh.

On to `OC(CO[C@H]1C[N+]2(CCCOc3ccccc3)CCC1CC2)(c1ccccc1)C1CCCC1.[Br-]` (stereo partly drawn) [Example 1, (2R,3S)-3-[(2-cyclopentyl-2-hydroxyl-2-phenyl)ethoxyl]-1-(3-phenoxypropyl)-1-azabicyclo[2,2,2]octane bromide], for which, in test [1], the “Selectivity m1/m2, Mx/My = Ki(y)/Ki(x)” value stood at 34.13; the “Selectivity m1/m3, Mx/My = Ki(y)/Ki(x)” value amounted to 0.358; the “Selectivity m2/m3, Mx/My = Ki(y)/Ki(x)” value is given as 0.0105. Further, the IC50 in test [2] (setting [5]) was found to be 0.767 µM. In test [3], the “Onset time” value came out at 6.89 min and the “Time for eliminating inhibition effect (min)” value is “more than 300 min”.

Consider `OC(CO[C@@H]1C[N+]2(CCCOc3ccccc3)CCC1CC2)(c1ccccc1)C1CCCC1.[Br-]` (stereo partly drawn) [Example 4, (2R,3R)-3-[(2-cyclopentyl-2-hydroxyl-2-phenyl)ethoxyl]-1-(3-phenoxypropyl)-1-azabicyclo[2,2,2]octane bromide], for which, in test [4] (1 μg/kg dropped in the airway), the “inhibition ratio against the decrease of pulmonary dynamic compliance” value (“inhibition ratio against the decrease” below) came to 11.2%, the “inhibition ratio against the increase of airway resistance” value (shortened to “inhibition ratio against the increase”) is 64.2%, the “Cdyn(ml/cm H2O)” value stood at 0.105 ± 0.012 ml/cm H2O and the “Raw (cm H2O/ml/s)” value is listed as 0.733 ± 0.088 cm H2O/ml/s. In test [4] (3 μg/kg dropped in the airway), the “inhibition ratio against the decrease” value came to 46.6%, the “inhibition ratio against the increase” value amounted to 86.1%, the “Cdyn(ml/cm H2O)” value amounted to 0.137 ± 0.015 ml/cm H2O and the “Raw (cm H2O/ml/s)” value was found to be 0.552 ± 0.060 cm H2O/ml/s. Further, in test [4] (10 μg/kg dropped in the airway), the “inhibition ratio against the decrease” value is given as 50.0%, the “inhibition ratio against the increase” value is 90.8%, the “Cdyn(ml/cm H2O)” value was determined as 0.196 ± 0.017 ml/cm H2O and the “Raw (cm H2O/ml/s)” value is recorded as 0.513 ± 0.071 cm H2O/ml/s. Further, in test [1], the “Selectivity m1/m2, Mx/My = Ki(y)/Ki(x)” value is 30.2; the “Selectivity m1/m3, Mx/My = Ki(y)/Ki(x)” value worked out at 0.332; the “Selectivity m2/m3, Mx/My = Ki(y)/Ki(x)” value is 0.011. Also, the IC50 in test [2] (setting [5]) is 0.0278 µM. Besides, in test [3], the “Onset time” value is given as 6.37 min and the “Time for eliminating inhibition effect (min)” value was “more than 300 min”.

`C[N+]1(C)CCC(OC(=O)C(c2ccccc2)c2ccccc2)CC1.[I-]` [Example 4-DAMP, 4-DAMP, reference compound]: in test [1], the “Selectivity m1/m2, Mx/My = Ki(y)/Ki(x)” value was determined as 1.66; the “Selectivity m1/m3, Mx/My = Ki(y)/Ki(x)” value was determined as 0.095; the “Selectivity m2/m3, Mx/My = Ki(y)/Ki(x)” value stood at 0.058.

As for `O[C@@](COC1C[N+]2(CCCOc3ccccc3)CCC1CC2)(c1ccccc1)C1CCCCC1.[Br-]` (stereo partly drawn) [Example 10, (2R,3R)-3-[(2-cyclohexyl-2-hydroxyl-2-phenyl)ethoxyl]-1-(3-phenoxypropyl)-1-azabicyclo[2,2,2]octane bromide], in test [4] (1 μg/kg dropped in the airway), the “inhibition ratio against the decrease” value was determined as 10.9%, the “inhibition ratio against the increase” value turned out to be 63.7%, the “Cdyn(ml/cm H2O)” value was determined as 0.098 ± 0.009 ml/cm H2O and the “Raw (cm H2O/ml/s)” value stood at 0.745 ± 0.089 cm H2O/ml/s. In test [4] (3 μg/kg dropped in the airway), the “inhibition ratio against the decrease” value was determined as 45.9%, the “inhibition ratio against the increase” value came out at 84.5%, the “Cdyn(ml/cm H2O)” value was found to be 0.135 ± 0.007 ml/cm H2O and the “Raw (cm H2O/ml/s)” value is given as 0.563 ± 0.057 cm H2O/ml/s. Also, in test [4] (10 μg/kg dropped in the airway), the “inhibition ratio against the decrease” value is given as 49.8%, the “inhibition ratio against the increase” value is 91.3%, the “Cdyn(ml/cm H2O)” value stood at 0.189 ± 0.015 ml/cm H2O and the “Raw (cm H2O/ml/s)” value came to 0.531 ± 0.092 cm H2O/ml/s. In addition, in test [2] (setting [6]), the IC50 was found to be 0.0227 µM. In addition, in test [3], the “Onset time” value amounted to 6.24 min and the “Time for eliminating inhibition effect (min)” value is given as “more than 300 min”.

`OC(CO[C@@H]1C[N+]2(CCCOc3ccccc3)CCC1CC2)(c1ccccc1)C1CCC1.[Br-]` (stereo partly drawn) [Example 16, (2R,3R)-3-[(2-cyclobutyl-2-hydroxyl-2-phenyl)ethoxyl]-1-(3-phenoxypropyl)-1-azabicyclo[2,2,2]octane bromide]: in test [1], the “Selectivity m1/m2, Mx/My = Ki(y)/Ki(x)” value was found to be 13.5; the “Selectivity m1/m3, Mx/My = Ki(y)/Ki(x)” value is recorded as 0.67; the “Selectivity m2/m3, Mx/My = Ki(y)/Ki(x)” value was 0.037. Besides, the IC50 in test [2] (setting [5]) stood at 0.0573 µM. Moreover, in test [3], the “Onset time” value is reported as 6.38 min and the “Time for eliminating inhibition effect (min)” value was “more than 300 min”.

As to `O[C@@](CO[C@@H]1C[N+]2(CCOc3ccccc3)CCC1CC2)(c1ccccc1)C1CCCC1.[Br-]` [Example 26, (2R,3R)-3-[(2-cyclopentyl-2-hydroxyl-2-phenyl)ethoxyl]-1-(2-phenoxyethyl)-1-azabicyclo[2,2,2]octane bromide], in test [4] (1 μg/kg dropped in the airway), the “inhibition ratio against the decrease” value was 11.0%, the “inhibition ratio against the increase” value was 64.4%, the “Cdyn(ml/cm H2O)” value is recorded as 0.103 ± 0.014 ml/cm H2O and the “Raw (cm H2O/ml/s)” value was found to be 0.739 ± 0.085 cm H2O/ml/s. Besides, in test [4] (3 μg/kg dropped in the airway), the “inhibition ratio against the decrease” value is recorded as 47.1%, the “inhibition ratio against the increase” value came to 87.2%, the “Cdyn(ml/cm H2O)” value is 0.143 ± 0.016 ml/cm H2O and the “Raw (cm H2O/ml/s)” value was 0.531 ± 0.063 cm H2O/ml/s. In test [4] (10 μg/kg dropped in the airway), the “inhibition ratio against the decrease” value was found to be 49.9%, the “inhibition ratio against the increase” value was 92.1%, the “Cdyn(ml/cm H2O)” value came out at 0.205 ± 0.018 ml/cm H2O and the “Raw (cm H2O/ml/s)” value was determined as 0.493 ± 0.083 cm H2O/ml/s. The IC50 in test [2] (setting [6]) was determined as 0.0235 µM. Further, in test [3], the “Onset time” value worked out at 6.14 min and the “Time for eliminating inhibition effect (min)” value was “more than 300 min”.

For `CC[N+](CC)(CC)CCOc1cccc(OCC[N+](CC)(CC)CC)c1OCC[N+](CC)(CC)CC` [Gallamine, reference compound], in test [1], the “Selectivity m1/m2, Mx/My = Ki(y)/Ki(x)” value amounted to 0.011; the “Selectivity m1/m3, Mx/My = Ki(y)/Ki(x)” value came out at 0.676; the “Selectivity m2/m3, Mx/My = Ki(y)/Ki(x)” value was 60.26.

In the case of `CN1CCN(CC(=O)N2c3ccccc3C(=O)Nc3cccnc32)CC1` [Pirenzepine, reference compound], in test [1], the “Selectivity m1/m2, Mx/My = Ki(y)/Ki(x)” value amounted to 169.82; the “Selectivity m1/m3, Mx/My = Ki(y)/Ki(x)” value is given as 13.49; the “Selectivity m2/m3, Mx/My = Ki(y)/Ki(x)” value is on record as 0.079.

Consider “(2R,3S),(2S,3R)-3-[(2-cyclopentyl-2-hydroxyl-2-phenyl)ethoxyl]-1-(3-phenoxypropyl)-1-azabicyclo[2,2,2]octane bromide [Example 5]”, for which, in test [1], the “Selectivity m1/m2, Mx/My = Ki(y)/Ki(x)” value is 45.6; the “Selectivity m1/m3, Mx/My = Ki(y)/Ki(x)” value was determined as 0.502; the “Selectivity m2/m3, Mx/My = Ki(y)/Ki(x)” value was determined as 0.011. Moreover, the IC50 in test [2] (3 × 10^−6 mol/L of CCh, read-out: IC50 (μM), antagonism in vitro against the contraction of the tracheal smooth muscle induced by CCh) is 1.03 µM. In addition, in test [3], the “Onset time” value turned out to be 7.01 min and the “Time for eliminating inhibition effect (min)” value was “more than 300 min”.

For the origin of these results see patent US9751875B2, “Quinine compounds, and optical isomers, preparation method and medical use thereof” (BEIJING FSWELCOME TECHNOLOGY DEVELOPMENT CO., LTD., priority 2013, dated 2017).
